Test results published in US5811428A, “Pyrimidine carboxamides and related compounds and methods for treating inflammatory conditions” (Signal Pharmaceuticals, Inc., priority 1995, dated 1998).
Where two headings read alike, the source gives them in different places.

Experiments:
NFκB / AP-1 = test: Inhibition of the activation of NFκB and AP-1 (luciferase reporter Jurkat T-cells, PMA/PHA stimulated); assay type: cell-based, human; conditions: stable Jurkat T-cells, read-out: NFκ/AP-1 IC50
Experimental: Stable human Jurkat T-cells containing an NFκB binding site (from the MHC promoter) fused to a minimal SV-40 promoter driving luciferase expression were used in this experiment. Cells were split to 3×10^5 cells/mL every 2-3 days (cell concentration should not exceed 1×10^6 cells/mL to keep the cells proliferating in log phase). These cells were counted, resuspended in fresh medium containing 10% Serum-Plus at a density of 1×10^6 cells/mL and plated in 96 well round bottom plates (200 μL per well) 18 hours prior to starting the experiment.
Compounds of this invention, dissolved in dimethyl sulfoxide (3.3, 0.33 and 0.03 μg/mL), were then added to the 96 well plates containing the cells and the plates are incubated for 0.5 h at 37° C. Then 50 ng/mL of phorbol 12-myristate-13-acetate (PMA) and 1 μg/mL of phytohemagglutinin (PHA) was added to each well and the cells were incubated for an additional 5 h at 37° C. The plates were centrifuged at 2200 RPM for 3 minutes at room temperature and then the medium was removed. To each well was added 60 μL of cell lysis buffer and the plates were left at room temperature for 0.25 h. Then 40 μL of each cell extract was transferred to a black 96 well plate and 50 μL of luciferase substrate buffer was added. Luminescence was immediately measured using a Packard TopCount.
For AP-1, the assay was run as described above for NFκB except stable Jurkat T-cells were used that contained a the -73 collagenase promoter driving luciferase expression. In addition, the concentration of PMA used was 5 ng/mL.

[1] = test system: DTH response to oxazolone; test: Delayed type hypersensitivity study (oxazolone contact sensitivity model); assay type: in vivo, mice; conditions: for Right-Left Ear (mean ± SEM): ear thickness difference 24 h after challenge, vehicle 0.30 ± 0.02
Experimental: On day 0, oxazolone (100 μL of a 3% solution) was applied to the shaved abdomen of mice. On day 7, a challenge application of oxazolone was applied (10 μL) around the right ear. […] It was prepared immediately prior to use by suspending it in 0.25% methyl cellulose (Sigma) using a glass-teflon homogenizer. For each dose, 0.1 mL/10 g body weight of the suspension was administered. The compound was prepared at the highest concentration for that study and appropriate dilutions of the stock solution were made so that 0.1 mL/10 g body weight was administered. Twenty four hours later, the difference in right vs. left ear thickness was measured.

[2] = test system: alloantigen-induced PLN proliferation; conditions: Morris et al., Transplantation Proceedings 22(Suppl. 1):110-112, 1990; cited from earlier work
[3] = test system: DTH response to oxazolone; conditions: Morris et al., Transplantation Proceedings 22(Suppl. 1):110-112, 1990; cited from earlier work
β-actin = β-actin control cell line (effects on transcription); assay type: cell-based; conditions: control for effects on transcription; FIG. 3
Description: The results of the above assays for a representative compound of this invention, 2-chloro-4-trifluoromethyl-5-N-(3',5'-bistrifluoromethylphenyl)pyrimidine carboxamide, as percent inhibition versus control are presented in FIG. 3. This figure also indicates activity of β-actin which was employed in these assays as a control cell line indicating effects on transcription.

[4] = test system: alloantigen-induced PLN proliferation; test: Murine popliteal lymph node (PLN) assay, graft vs. host model; assay type: in vivo, C3H mice (donor BALB/c mice)
Description: The murine popliteal lymph node (PLN) assay is a graft vs. host model that predicts activity of compounds in blocking human transplant rejection. The delayed-type hypersensitivity response to oxazolone is a standard contact sensitivity model. Both of these models are used routinely to evaluate compounds that are used clinically.
Spleens were removed from donor BALB/c mice and splenocytes were isolated then irradiated (3,000 rads) to prevent donor cell proliferation. After washing and adjusting cell density, 2.5×10^6 cells were injected subcutaneously into the left hind footpad of C3H mice. On day 4, the mice were sacrificed and left popliteal lymph nodes (PLNs) were weighed.
For doses of 10, 20 and 30 mg/kg, appropriate dilutions of the stock solution were made so that 0.1 mL/10 g body weight was administered by intraperitoneal injection.

| Molecule | IC50 (NFκB / AP-1; Homo sapiens) | also measured |
| --- | --- | --- |
| NC(=O)c1cc(NC(=O)c2cnc(Cl)nc2C(F)(F)F)cc(C(F)(F)F)c1 [Example 11, 2-CHLORO-4-TRIFLUOROMETHYL-5-N-(3'-TRIFLUOROMETHYL-5'-CARBOXAMIDEPHENYL) PYRIMIDINE CARBOXAMIDE] | 5000 nM |  |
| 2-[N-(1-AMINOCITRACONAMIDE)]-4-TRIFLUOROMETHYL-5-[N-(3',5'-DICHLOROPHENYL)]-PYRIMIDINE-5-CARBOXAMIDE [Example 45] |  | IC50 (NFκB / AP-1): 2000 nM |
| CC(=O)Nc1cc(NC(=O)c2cnc(Cl)nc2C(F)(F)F)ccc1F [Example 10, 2-CHLORO-4-TRIFLUOROMETHYL-5-N-(3'-N-ACYL-4'-FLUORO-ANILINE)PYRIMIDINE CARBOXAMIDE] | 1000 nM |  |
| CN(C(=O)c1cnc(Cl)nc1C(F)(F)F)c1cc(Cl)cc(Cl)c1 [Example 13, 2-CHLORO-4-TRIFLUOROMETHYL-5-N-(3',5'-DICHLOROPHENYL)-5-N-(METHYL)PYRIMIDINE CARBOXAMIDE] | 5000 nM |  |
| O=P1(N(CCCl)CCCl)NCCCO1 (stereo not shown) [Cyclophosphamide, reference compound] |  | Right-Left Ear (mean ± SEM) ([1]; 50 mg/kg (i.p.)): 0.08 ± 0.01; attenuation of the delayed-type response to oxazolone ([1]; 50 mg/kg i.p.): 73%; activity in the PLN model (in words) [2]: active; activity in the contact sensitivity model (in words) [3]: active |
| O=C(Nc1cc(Cl)cc(Cl)c1O)c1cnc(Cl)nc1C(F)(F)F [Example 8, 2-CHLORO-4-TRIFLUOROMETHYL-5-N-(3',5'-DICHLORO-6'-HYDROXYPHENYL)PYRIMIDINE CARBOXAMIDE] | 6000 nM |  |
| N#Cc1ncc(C(=O)Nc2cc(C(F)(F)F)cc(C(F)(F)F)c2)c(C(F)(F)F)n1 [Example 42, 2-CYANO-4-TRIFLUOROMETHYL-5-N-[3',5'-BIS(TRIFLUOROMETHYL)PHENYL]PYRIMIDINE CARBOXAMIDE] | > 10000 nM |  |
| O=C(Nc1cc(C(F)(F)F)cc(C(F)(F)F)c1)c1cnc(Cl)nc1C(F)(F)F [Example 1, 2-CHLORO-4-TRIFLUOROMETHYL-5-N-[3',5'-BIS(TRIFLUOROMETHYL)PHENYL]PYRIMIDINECARBOXAMIDE] | 30 nM | Right-Left Ear (mean ± SEM) ([1]; 10 mg/kg (i.p.)): 0.27 ± 0.01; animal deaths during study ([1]; 30 mg/kg (i.p.)): One animal died during study; Right-Left Ear (mean ± SEM) ([1]; 30 mg/kg (i.p.)): 0.13 ± 0.02; attenuation of the delayed-type response to oxazolone ([1]; 30 mg/kg i.p.): 56%; activity of β-actin (control cell line) (β-actin): lack of β-actin activity; inhibition of PLN proliferation ([4]; 10 mg/kg, once daily intraperitoneal, day 0 through day 4): 52%; suppression of alloantigen-induced PLN proliferation (in words) ([4]; 10, 20 and 30 mg/kg i.p.): dose-dependent suppression of alloantigen-induced PLN proliferation |
| O=C(Nc1cc(Cl)c(Cl)c(Cl)c1)c1cnc(Cl)nc1C(F)(F)F [Example 6, 2-CHLORO-4-TRIFLUOROMETHYL-5-N-(3',4',5'-TRICHLOROPHENYL)PYRIMIDINE CARBOXAMIDE] | 800 nM |  |
| Cc1nc(Cl)nc(Cl)c1C(=O)Nc1cc(C(F)(F)F)cc(C(F)(F)F)c1 [Example 15, 5-N-[3',5'-BIS(TRIFLUOROMETHYL)PHENYL]2,4-DICHLORO-6-METHYLPYRIMIDINE CARBOXAMIDE] | 800 nM |  |

More lines, in order of falling IC50 (NFκB / AP-1; Homo sapiens), values ahead:

| IC50 (NFκB / AP-1; Homo sapiens) | Molecule | also measured |
| --- | --- | --- |
| 750 nM | O=C(Nc1ccc(C(F)(F)F)cc1)c1cnc(Cl)nc1C(F)(F)F [Example 2, 2-CHLORO-4-TRlFLUOROMETHYL-5-N(4'-TRIFLUOROMETHYLPHENYL)PYRIMIDINE CARBOXAMIDE] |  |
| 600 nM | O=C(Nc1cc(C(F)(F)F)cc(C(F)(F)F)c1)c1cnc(Cl)nc1Cl [Example 41, 2,4-DICHLORO-5-N-[3',5'-BIS(TRIFLUOROMETHYL)PHENYL]PYRIMIDINE-5-CARBOXAMIDE] |  |
| 500 nM | O=C(Nc1cc(C(F)(F)F)cc(C(F)(F)F)c1)c1cnc(Cl)nc1-c1ccccc1 [Example 43, 2-CHLORO-4-PHENYL-5-N-[3',5'-BIS(TRIFLUOROMETHYL)PHENYL]PYRIMIDINE CARBOXAMIDE] |  |
| 400 nM | CCOC(=O)c1cc(NC(=O)c2cnc(Cl)nc2C(F)(F)F)cc(C(F)(F)F)c1 [Example 12, 2-CHLORO-4-TRIFLUOROMETHYL-5-N-(3'-TRIFLUOROMETHYL-5'-ETHOXYCARBONYLPHENYL)PYRIMIDINE CARBOXAMIDE] |  |
| 75 nM | Cc1nc(Cl)ncc1C(=O)Nc1cc(C(F)(F)F)cc(C(F)(F)F)c1 [Example 39, 2-CHLORO-4-METHYL-5-N-[3',5'-BIS(TRIFLUOROMETHYL)PHENYL]PYRIMIDINE CARBOXAMIDE] |  |
